Assay results published in ChEMBL document CHEMBL1151509, “Synthesis of active metabolites of indole pyrrolothiazole paf antagonists” (Bioorg Med Chem Lett, 1995).

What was measured:
Rattus norvegicus = assay: Inhibition of PAF induced cutaneous vascular permeability in rat by intravenous administration; type: functional
[1] = target: Platelet-activating factor receptor (Rattus norvegicus, UniProt P46002); assay: Inhibition of platelet activating factor(PAF) by binding to PAF receptor
Sequence of Platelet-activating factor receptor (P46002 whole entry): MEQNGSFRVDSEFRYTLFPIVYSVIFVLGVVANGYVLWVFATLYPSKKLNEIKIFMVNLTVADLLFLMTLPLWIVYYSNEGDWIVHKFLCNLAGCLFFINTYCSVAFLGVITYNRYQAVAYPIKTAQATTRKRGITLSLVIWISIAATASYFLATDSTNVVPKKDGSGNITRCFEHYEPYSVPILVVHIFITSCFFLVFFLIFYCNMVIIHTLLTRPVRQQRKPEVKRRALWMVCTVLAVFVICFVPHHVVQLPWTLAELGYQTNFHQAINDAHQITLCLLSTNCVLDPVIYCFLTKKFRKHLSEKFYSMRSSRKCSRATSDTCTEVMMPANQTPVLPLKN

SMILES | ED50 (Rattus norvegicus; Rattus norvegicus, iv, read-out: ED50) [mg/kg] | ED50 (Rattus norvegicus) [mg/kg] | Ki [1] [nM]
CN(C)C(=O)n1cc(C(=O)c2ccn3c2CS[C@@H]3c2cccnc2)c2ccc(-c3ccc(F)cc3)cc21 | 0.006 |  | 
CN(C)C(=O)n1cc(C(=O)c2ccn3c2C[S+]([O-])[C@@H]3c2cccnc2)c2ccc(-c3ccc(F)cc3)cc21 (stereo in doubt; cis) |  | 0.025 | 8.5
CN(C)C(=O)n1cc(C(=O)c2ccn3c2C[S+]([O-])[C@@H]3c2cccnc2)c2ccc(-c3ccc(F)cc3)cc21 (stereo in doubt; trans) |  | 0.1 | 68
